From patent US20030225273A1, “Thiopyrimidine and isothiazolopyrimidine kinase inhibitors” (priority 2002, published 2003)

melting point [°C] | Structure (SMILES)
> 250 | CC(C)c1sc2ncnc(N)c2c1-c1ccc(NC(=O)c2ccccc2)cc1 [Example 8, N-[4-(4-amino-6-isopropylthieno[2,3-d]pyrimidin-5-yl)phenyl]benzamide]
128 to 132 | COCCc1sc2ncnc(N)c2c1-c1ccc(NC(=O)Nc2ccc(C)cc2)cc1 [Example 110, N-{4-[4-amino-6-(2-methoxyethyl)thieno[2,3-d]pyrimidin-5-yl]phenyl}-N′-(4-methylphenyl)urea]
169 to 173 | Cc1ccc(NC(=O)Nc2ccc(-c3c(Cc4ccccc4)sc4ncnc(N)c34)cc2)cc1 [Example 9, N-[4-(4-amino-6-benzylthieno[2,3-d]pyrimidin-5-yl)phenyl]-N′-(4-methylphenyl)urea]
200 to 202 | COCCc1sc2ncnc(N)c2c1-c1ccc(NC(=O)Cc2cccc(C)c2)cc1 [Example 112, N-{4-[4-amino-6-(2-methoxyethyl)thieno[2,3-d]pyrimidin-5-yl]phenyl}-2-(3-methylphenyl)acetamide]
162 to 166 | Nc1ncnc2sc(Cc3ccncc3)c(-c3ccc(NC(=O)Nc4cccc(C(F)(F)F)c4)cc3)c12 [Example 142, N-{4-[4-amino-6-(pyridin-4-ylmethyl)thieno[2,3-d]pyrimidin-5-yl]phenyl}-N′-[3-(trifluoromethyl)phenyl]urea]
142 to 144 | Cc1cccc(CC(=O)Nc2ccc(-c3c(CCO)sc4ncnc(N)c34)cc2)c1 [Example 350, N-{4-[4-amino-6-(2-hydroxyethyl)thieno[2,3-d]pyrimidin-5-yl]phenyl}-2-(3-methylphenyl)acetamide]
206 to 208 | COCCc1sc2ncnc(N)c2c1-c1ccc(NS(=O)(=O)c2ccccc2)cc1 [Example 111, N-{4-[4-amino-6-(2-methoxyethyl)thieno[2,3-d]pyrimidin-5-yl]phenyl}benzenesulfonamide]
159 to 162 | Cc1ccccc1NC(=O)Nc1ccc(-c2c(CCO)sc3ncnc(N)c23)cc1 [Example 107, N-{4-[4-amino-6-(2-hydroxyethyl)thieno[2,3-d]pyrimidin-5-yl]phenyl}-N′-(2-methylphenyl)urea]
155 to 158 | NC(=O)N(c1ccc(-c2c(CCO)sc3ncnc(N)c23)cc1)c1cccc(C(F)(F)F)c1 [Example 139, N-{4-[4-amino-6-(2-hydroxyethyl)thieno[2,3-d]pyrimidin-5-yl]phenyl}-N-[3-(trifluoromethyl)phenyl]urea]
217 to 219 | COCCc1sc2ncnc(N)c2c1-c1ccc(N(C(N)=O)c2ccccc2C)cc1 [Example 137, N-{4-[4-amino-6-(2-methoxyethyl)thieno[2,3-d]pyrimidin-5-yl]phenyl}-N-(2-methylphenyl)urea]
100 to 105 | Nc1ncnc2sc(Cc3ccccc3)c(-c3ccc(NS(=O)(=O)c4ccccc4)cc3)c12 [Example 13, N-[4-(4-amino-6-benzylthieno[2,3-d]pyrimidin-5-yl)phenyl]benzenesulfonamide]
209 to 211 | COCCc1sc2ncnc(N)c2c1-c1ccc(NC(=O)Nc2cc(C(F)(F)F)ccc2F)cc1 [Example 140, N-{4-[4-amino-6-(2-methoxyethyl)thieno[2,3-d]pyrimidin-5-yl]phenyl}-N′-[2-fluoro-5-(trifluoromethyl)phenyl]urea]
200 to 202 | COCCc1sc2ncnc(N)c2c1-c1ccc(NC(=O)c2ccccc2)cc1 [Example 113, N-{4-[4-amino-6-(2-methoxyethyl)thieno[2,3-d]pyrimidin-5-yl]phenyl}benzamide]
169 to 172 | Nc1ncnc2sc(Cc3cccnc3)c(-c3ccc(NC(=O)Nc4cccc(Cl)c4)cc3)c12 [Example 117, N-{4-[4-amino-6-(pyridin-3-ylmethyl)thieno[2,3-d]pyrimidin-5-yl]phenyl}-N′-(3-chlorophenyl)urea]
